Data set [1] relates to washed human platelets. In words: Washed platelet aggregation by turbidimetry (light transmission aggregometer). Type of data set: cell-based. Here is the method:
Healthy volunteers had abstained from Aspirin and others anti-inflammatory drugs for at least […] prior to blood sampling. Written informed consent was obtained from all donors. Blood samples were collected into sodium citrate 3.2% and centrifuged for 10 min at 190 g. The supernatant thus obtained was the platelet-rich plasma (PRP).
Washed platelets were prepared from centrifuged PRP previously supplemented with rostacyclin (0.5 μM) to avoid platelet activation. The pellet was suspended in buffer A (pH 6.8) containing 140 mM NaCl, 5 mM KCl, 5 mM KH2PO4, 1 mM MgSO4, 10 mM N-2-hydroxyethylpiperazine-N′-2-ethanesulfonic acid, 5 mM glucose and 0.35% bovine serum albumin (w/v). The same buffer containing 1 mM CaCl2 and apyrase but without BSA (adjusted to pH 7.4) was added to the final suspension to reach 2×10^8 platelets/ml.
Different concentrations of LG were added to 270 μl of PRP or washed platelets from an initial concentration of 250 mM. Platelet aggregation was recorded using a light transmission aggregometer (SD Medical). The percentage of transmittance of PRP or washed platelets was recorded as 0%, and that of the appropriate PPP or buffer was recorded as 100% respectively. Each condition was repeated for many healthy volunteers. Platelets treated with DMSO serves as negative control. Potentiation between low doses of LG and collagen or TRAP to aggregate platelets was also determined.

In another data set the test system is platelets. To be noted: Hongyan and Richard, 2004; cited from earlier work.
Data set [2] relates to washed platelets from healthy donors. In words: Scanning electron microscopy of platelets. The data set is classed as cell-based, human. To be noted: 10 min, non-shaking. Here is the method:
Platelets are treated with TRAP 25 μM, LG (LC and HC) during 10 minutes. They were fixed in 2.5% glutaraldehyde in 0.1 M Sorensen phosphate buffer (pH 7.4) for at least 1 h at 37° C. After sedimentation, the pellets were re-suspended in water and made to adhere on poly-lysine coated glass coverslips. Platelets were then dehydrated in a graded ethanol series and dried by critical point drying with a Leica EM CPD 300. The samples were coated with 6 nm Platinium on a Leica EM Med 020 before being examined on a FEI Quanta 250 FEG scanning electron microscope, at an accelerating voltage of 5 kV (Valet 2021).

The next data set has as its system fungi. To be noted: Kubo et al, 2003; cited from earlier work.
The subject of another data set is tumoral cell lines. To be noted: Ortega et al, 2003; cited from earlier work.
The next data set deals with Wistar rats. In words: Rat tail bleeding time. The data set is classed as in vivo. Here is the method:
Wistar rats of either gender weighing between 200 and 250 g were purchased from the Central Pharmacy of Tunisia. Animal handling conforms to the European Convention (CE. no. 123). Animals were fed a standard chow diet and had free access to water. They were housed five rats in a cage (0.12 m^2). Bleeding time was measured by transection of the tail, 1 cm from the tip, of phenobarbital anesthetized rats (25 mg/kg. i.p). Immediately after transection, the tail was dipped for 5 seconds into LG solution (5, 50, or 100 mg/ml of LG dissolved in ethanol) or vehicle (ethanol) and then placed carefully on Whatman paper. Blood was allowed to drop on filter paper which was moved gently every 30 seconds until no more blood was dropped. […] The bleeding time was also determined for a lot of rats not treated with any solution (control) and for another treated with ethanol to test the effect of the solvent. Tranexamic acid (100 mg/ml) was used as a standard anti-hemorrhagic drug under the same conditions. Each condition was repeated for six rats.

For another data set, the system named is CD63. In words: Flow cytometry of dense granule secretion marker CD63. To be noted: following addition of LG. Type of data set: cell-based, human. Here is the method:
(§1) Washed platelets were pre-incubated with LG or DMSO for 5 and 10 min at 37° C. Samples were then incubated for 15 min at room temperature in the dark with anti-CD62P, anti-CD63 or monoclonal antibody PAC-1. This last recognize and binds only to the active form of integrin αIIbβ3 complex. Analysis of respective protein was performed using a FACS-Verse cytometer BD Biosciences). Platelets were identified on the basis of their Forward Scatter and Side Scatter properties.

For data set [3], the system named is washed human platelets. Put plainly: Calcium mobilization with CalciFluor 8-AM and flow cytometry. Type of data set: cell-based. On the procedure:
Platelet calcium flux was adapted from the work described by (Monteiro et al. 1999). Washed platelets re-suspended at 10^8/ml in platelet wash buffer were incubated with the calcium indicator dyes Calcifluor 8-AM (R&D system) at 5 μM and Pluronic F-127 0.02% v/v (Sigma Aldrich) for 30 min at 37° C. The platelets were washed twice with platelet wash buffer, re-suspended in Tyrode's buffer containing EGTA (1 mM) or BAPTA-AM (10 μM). Changes in cytosolic calcium concentration were associated with increased or decreased fluorescence emission of Calcifluor 8-AM (emission wavelengths of 500-570 nm). These changes were analyzed using flow cytometry BD LSRII Fortessa. Results were expressed in fold increased Median Fluorescence. The determination of internal calcium concentration in platelet was described by Grynkiewicz et al. (1985).
(Calcium assays in cells follow changes in intracellular calcium, usually with a dye or a luminescent sensor.)

In the next data set the test system is Akt. Put plainly: Western blotting of Akt phosphorylation (Ser473). The data set is classed as cell-based, human. Here is the method:
(§2) Washed platelets were treated with LG (LC and HC) or DMSO. Aliquots were taken at 0, 2.5, 5 and 10 min, lysed with sample buffer and boiled. Proteins were loaded on to sodium dodecyl sulfate 10% polyacrylamide gel and, after electrophoresis, transferred to a nitrocellulose membrane. […] Phospho antibodies were diluted in TBS-Tween 5%-BSA (w/v) and incubated overnight and the others for 2 h. After washing, each blot was incubated with the corresponding horseradish peroxidase-conjugated anti-mouse or anti-rabbit. Immunoblots were developed using Super signal chemiluminescent substrate (Pierce, Rockford, IL) and analyzed with chemidoc Imaging system (Biorad).
A general note: Immunoblotting shows a protein as a band on a membrane.

The next data set deals with animal viruses. To be noted: Hurtado et al, 2008; cited from earlier work.
The subject of the next data set is p38 MAPK. Put plainly: Western blotting of p38 MAPK phosphorylation (Thr180/Tyr182). The data set is classed as cell-based, human. Here is the method: as §2
The subject of a further data set is phosphatidylserine (PS). Put plainly: Phosphatidylserine exposure by annexin V binding (flow cytometry). The data set is classed as cell-based, human. To be noted: LG 0.05 mM. On the procedure: For phosphatidylserine exposure, washed platelets were pre-incubated with LG 0.05 mM or DMSO for 5 min at 37° C. Dilute the activated or non-activated sample with the 1× binding buffer provided in the kit to a final volume of 100 μl and add 5 μl of Annexin V AF647 (Clinisciences) for 15 min at 37° C. in the dark. The binding reaction is stopped with 500 ill of 1× binding buffer (Ramstrom 2010). Analysis was performed using LSR Fortessa cytometer (BD Biosciences).

Data set [4] concerns washed platelets from healthy donors. In words: Measurement of LDH leakage from washed platelets. The data set is classed as cell-based, human. To be noted: low doses of LG 0.1 mM), 10 min. On the procedure: Washed platelets from healthy donors were treated with different doses of LG or control (DMSO) for 10 minutes at 37° C. Following, platelets were pelleted by centrifugation at 1800×g for 3 min. Supernatants were used to detect Lactate dehydrogenase (LDH) release by colorimetric method (Thermo Fisher Scientific), according to the manufacturer's protocol. The assay was performed in endpoint time of increased of formazan absorbance at 680 nm for 30 min. Maximal LDH leakage was obtained with lysis buffer. Results, expressed as percentage of LDH leakage are mean±SEM (n=6) (** p<0.01, *** p<0.001 according to Kruskal-Wallis test).

The next data set has as its system Src kinases. In words: Western blotting of Src kinase cleavage. Type of data set: cell-based, human. On the procedure:
as §2

The subject of another data set is human whole blood. In words: Thrombus formation on immobilized collagen under flow conditions. The data set is classed as cell-based. To be noted: LG 0.05 mM. Here is the method:
This method was performed as previously described (Gratacap et al, 2009). Briefly, biochips with micro-capillaries (Vena8Fluoro+®, Cellix) were coated with collagen type I. Epi-fluorescence microscope (Axio Observer; Carl Zeiss) allowed direct visualization of platelet adhesion and aggregation which was recorded with ORCA-R2 camera (Hamamatsu). Whole blood was collected into 13.6 UI/m1 lithium heparinate and platelets were labeled with DIOC6(Life Technologies, 2 μM, 10 min at 37° C.) LG (0.05 mM) was then added to blood just prior to injection through a micro-capillary at shear rate of 1500 s^−1. Thrombus formation was visualized with a 40× long working distance objective in real time. The range was fixed to 80 μm and the interval to 1.5 μm. The acquisition rate was chosen at one frame every 30 sec divided into two positions. Quantification of surface coverage was performed off-line using ImageJ software.

The test system of a further data set is αIIbβ3 integrin. Put plainly: Flow cytometry of αIIbβ3 activation with PAC-1 antibody. The data set is classed as cell-based, human. Here is the method: as §1
Data set [5] has as its system Gram-positive bacteria like Bacillus subtilis or Streptococcus mutans. To be noted: cited from earlier work.
A further data set relates to CD62-P (P-selectin). In words: Flow cytometry of α-granule secretion marker CD62-P. Type of data set: cell-based, human. Here is the method: as §1

Turning to collagen [reference compound], in the data set with washed human platelets [1] (collagen 0.15 μg/ml alone), the “platelet aggregation by agonist alone” value is “unable to trigger detectable platelet aggregation”.

With `CCCOC(=O)c1cc(O)c(O)c(O)c1` [propyl gallate], the platelet aggregation result in the data set on platelets is “induce platelet aggregation”.

Take `CCCCCCCCCCCCOC(=O)c1cc(O)c(O)c(O)c1` [LG, Dodecyl 3,4,5-trihydroxybenzoate]: the platelet morphology result in [2] (LG 0.05 mM) is “induced platelet shape change and filopodia formation”; in data set [2] (LG 0.75 mM), “membrane structure was strongly modified with a grainy appearance and apparent pores formation”. The antifungal activity result in the data set with fungi was “does not have antifungal activity”. Further, in the data set on tumoral cell lines, the “anti-proliferative and pro-apoptotic activity” value is “anti-proliferative and pro-apoptotic activity”. Moreover, the “efficiency on bleeding time compared with tranexamic acid” value with Wistar rats (LG 50 mg/ml versus tranexamic acid 100 mg/ml in ethanol) is “significantly more efficient”. The tail bleeding time result in the data set on Wistar rats (tail dipped 5 seconds, 50 mg/ml LG in ethanol) was “dramatically reduced”. The “plasma membrane expression level of CD63” value in the data set with CD63 was “significantly increased”. Also, in the data set with washed human platelets [3] (LG 0.05 mM, after 2.5 min), the “cytoplasmic free calcium concentration” value was 230 ± 25 nM. In addition, the free cytosolic calcium in the data set on washed human platelets [3] (LG 0.75 mM, at 0.5 min) worked out at 105 ± 15 nM. Moreover, the Akt phosphorylation entry with Akt (LG 0.05 mM) is given as “rapid activation”. Also, the Akt activation result in the data set on Akt (LG 0.75 mM) was “at later times”. Also, in the data set with animal viruses, the antiviral activity result is “potent antiviral activity”. In addition, the “p38 MAPK phosphorylation” value with p38 MAPK (LG 0.05 mM) is recorded as “rapid activation”. For the same compound, in the data set with p38 MAPK (LG 0.75 mM), the “p38 MAPK activation” value is listed as “at later times”. Also, the “exposure of PS on the platelet surface (annexin V binding)” value in the data set on phosphatidylserine (PS) is listed as “significant exposure”. For the same compound, the “LDH release from platelets” value in data set [4] is reported as “no significant LDH release”. The Src-kinase cleavage result in the data set with Src kinases (LG 0.75 mM, substantial at 10 min) is “induced a cleavage of Src-kinase”; in the data set on Src kinases (low dose of LG (0.05 mM)) it was “no impact”. Further, the maximal platelet aggregation is ~80% with washed human platelets [1] (LG 0.05 mM alone, washed human platelets, fast and stable); ~50% in the data set on washed human platelets [1] (high concentrations of LG (0.75 mM), slow response). Further, the “shape of dose-response of platelet aggregation” value in the data set with washed human platelets [1] (increasing concentrations, first peak 0.05 mM, decrease until 0.2 mM, plateau 0.75 to 1 mM) is on record as “non-monotonic dose-response”. In the data set with human whole blood (collagen matrix, arterial shear rate), the “surface covered by platelets” value is “significantly increased”. Further, the “thrombus volumes compared to control” value in the data set with human whole blood (collagen-coated microcapillaries, shear rate 1500 s^−1) is “significantly increased”. The “time to capillary occlusion” value in the data set on human whole blood (in several experiments, recording 300 s) is listed as < 300 s. In addition, the “activation of αIIbβ3, lower than that induced by 50 μM TRAP” value with αIIbβ3 integrin (LG 0.05 mM versus 50 μM TRAP) is on record as 50%. For the same compound, the “expression of the active form of the fibrinogen receptor αIIbβ3” value in the data set on αIIbβ3 integrin (particularly at 0.05 mM) is given as “significant increase”. Further, in [5], the antibacterial activity entry is “antibacterial activity”. For the same compound, the “expression of CD62-P on the plasma membrane” value with CD62-P (P-selectin) (LG 0.05 mM) and in the data set on CD62-P (P-selectin) (LG 0.75 mM) was “markedly increased” each time. Further, in the data set on CD62-P (P-selectin) (versus 50 μM TRAP), the “α-granule secretion intensity compared with 50 μM TRAP” value was “slightly lower”.

(Values after patent US20240423944A1, “USE OF LAURYL GALLATE (LG) AS A HEMOSTATIC AGENT” (CENTRE DE BIOTECHNOLOGIE DE SFAX (CBS), priority 2021, published 2024).)
